Laboratory results as given in paper PMC10765126, “High-throughput computational screening and in vitro evaluation identifies 5-(4-oxo-4H-3,1-benzoxazin-2-yl)-2-[3-(4-oxo-4H-3,1-benzoxazin-2-yl) phenyl]-1H-isoindole-1,3(2H)-dione (C3), as a novel EGFR—HER2 dual inhibitor in gastric tumors” (Oncology Research, 2023).

Legend:
HER2 = molecular target: T1, HER2 (Homo sapiens, UniProt P04626); experiment: luminescence kinase assay (Kinase-Glo Max, BPS Bioscience HER2 kit, […] ATP); type: biochemical
T1 construct: gene ERBB2
T1 sequence (P04626 23-1255): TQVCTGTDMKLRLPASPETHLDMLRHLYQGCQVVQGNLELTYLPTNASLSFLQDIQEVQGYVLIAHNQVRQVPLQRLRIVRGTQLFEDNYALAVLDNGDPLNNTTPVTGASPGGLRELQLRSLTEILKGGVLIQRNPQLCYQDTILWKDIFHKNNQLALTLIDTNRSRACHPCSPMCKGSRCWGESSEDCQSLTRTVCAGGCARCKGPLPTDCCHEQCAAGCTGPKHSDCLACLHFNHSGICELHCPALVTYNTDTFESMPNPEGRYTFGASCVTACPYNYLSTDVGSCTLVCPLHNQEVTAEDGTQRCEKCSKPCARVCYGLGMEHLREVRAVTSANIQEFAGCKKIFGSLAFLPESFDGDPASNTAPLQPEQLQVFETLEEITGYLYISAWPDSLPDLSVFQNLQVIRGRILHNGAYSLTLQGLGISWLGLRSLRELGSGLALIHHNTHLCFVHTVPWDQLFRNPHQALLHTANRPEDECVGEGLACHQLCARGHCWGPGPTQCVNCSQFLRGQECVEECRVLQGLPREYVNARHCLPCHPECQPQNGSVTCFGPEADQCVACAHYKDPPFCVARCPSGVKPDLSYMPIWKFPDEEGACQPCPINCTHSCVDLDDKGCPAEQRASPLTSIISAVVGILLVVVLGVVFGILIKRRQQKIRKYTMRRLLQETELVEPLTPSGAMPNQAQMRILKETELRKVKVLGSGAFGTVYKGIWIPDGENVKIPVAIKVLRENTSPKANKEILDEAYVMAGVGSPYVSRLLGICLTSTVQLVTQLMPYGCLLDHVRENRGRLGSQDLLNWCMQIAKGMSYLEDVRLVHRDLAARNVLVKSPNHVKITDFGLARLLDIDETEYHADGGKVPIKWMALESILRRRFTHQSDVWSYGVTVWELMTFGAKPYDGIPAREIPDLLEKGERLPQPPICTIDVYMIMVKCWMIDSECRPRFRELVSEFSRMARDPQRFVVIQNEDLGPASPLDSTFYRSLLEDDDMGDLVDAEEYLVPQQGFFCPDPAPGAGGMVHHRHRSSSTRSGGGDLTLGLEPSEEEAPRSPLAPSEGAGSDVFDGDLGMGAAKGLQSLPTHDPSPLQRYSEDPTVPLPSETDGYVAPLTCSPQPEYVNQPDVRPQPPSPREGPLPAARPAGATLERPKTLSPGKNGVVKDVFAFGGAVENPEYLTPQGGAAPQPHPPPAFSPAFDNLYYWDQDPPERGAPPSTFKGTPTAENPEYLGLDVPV

EGFR = EGFR (Homo sapiens, UniProt P00533, L858R/T790M); experiment: luminescence kinase assay (Kinase-Glo Max, BPS Bioscience EGFR (T790M/L858R) kit, […] ATP); type: biochemical
Sequence of EGFR (P00533 696-1210 T790M/L858R limits assumed): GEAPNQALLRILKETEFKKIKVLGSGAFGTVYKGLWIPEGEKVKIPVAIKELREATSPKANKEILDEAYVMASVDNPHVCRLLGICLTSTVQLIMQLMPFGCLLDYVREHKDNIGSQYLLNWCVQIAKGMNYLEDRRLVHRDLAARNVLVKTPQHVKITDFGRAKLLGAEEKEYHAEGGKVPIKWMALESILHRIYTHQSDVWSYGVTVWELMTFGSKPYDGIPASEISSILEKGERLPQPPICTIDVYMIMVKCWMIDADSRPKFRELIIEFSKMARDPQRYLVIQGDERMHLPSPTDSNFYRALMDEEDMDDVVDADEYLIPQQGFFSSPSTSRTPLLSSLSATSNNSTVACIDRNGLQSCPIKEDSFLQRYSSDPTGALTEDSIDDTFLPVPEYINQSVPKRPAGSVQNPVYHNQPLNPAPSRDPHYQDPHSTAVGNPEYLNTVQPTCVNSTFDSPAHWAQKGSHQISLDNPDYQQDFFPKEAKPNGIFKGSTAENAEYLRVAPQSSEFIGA

**Q.** For `O=C1c2ccc(-c3nc4ccccc4c(=O)o3)cc2C(=O)N1c1cccc(-c2nc3ccccc3c(=O)o2)c1` [C3, 5-(4-oxo-4H-3,1-benzoxazin-2-yl)-2-[3-(4-oxo-4H-3,1-benzoxazin-2-yl)phenyl]-1H-isoindole-1,3(2H)-dione], which IC50 (HER2) is on record?
**A.** 45.8 nM

**Q.** And the IC50 (EGFR)?
**A.** 37.2 nM
